From patent US20210205413A1 (Nektar Therapeutics, priority 2018, published 2021)
Entries after “also recorded” stand apart in the source; their conditions may differ.

Key:
CD4 T cells, CD8 T cells = assay: Single-dose PK/PD study in mice: CD4 and CD8 T cells in blood; format: in vivo, C57BL/6 mice; details: single SC 0.3 mg/kg
Excerpt: (§1) Following administration, blood and spleen samples are collected at days 1-7 and day 10 post administration. More particularly, at each time point, blood and spleen samples are collected; samples are pooled and assessed for pharmacodynamic analysis of drug action on lymphocyte cell populations by flow cytometry (see e.g. Example 5), expressed as a fold change relative to vehicle control. In addition to changes in cell numbers, functional markers and markers of activity are quantified. Finally, plasma drug concentration is also assessed.

[1] = test system: CD4+FoxP3+CD25bright Tregs; assay: Phase I single ascending dose study in healthy volunteers: Tregs in peripheral blood by flow cytometry; format: in vivo, human
Description: (§2) A double-blind, randomized, placebo-controlled study is conducted to evaluate the safety, tolerability, pharmacokinetics, and pharmacodynamics of single ascending low sub-cutaneous doses of an RUR20kD-IL-2 composition (RUR20kD-IL-2) in healthy volunteers. […] Twelve subjects are randomized to each dose cohort, nine of whom received a single subcutaneous dose of RUR20kD-IL-2 while three received placebo. […] The drug product is supplied in single-use glass vials and stored at 2-8° C. […] Placebo is a commercially available 0.9% sodium chloride solution. A starting dose of 0.3 μg/kg is chosen using the minimally anticipated biological effect level (MABEL) approach and is supported by the no observed adverse effect level (NOAEL) in the most sensitive species from nonclinical toxicology studies.
(§3) The primary objective of the study is to evaluate the safety and tolerability of RUR20kD-IL-2 administered as a single subcutaneous dose. […] In a first phase of the study, immune markers are tested pre-dose up to 20 hours post-dose. Specifically, Tregs, CD4^+-T cells, CD8^+-T cells, natural killer (NK) cells, cytokines, soluble CD25, and RNA are tested in RUR20kD-IL-2- and placebo-receiving cohorts. In subsequent phases, the same immune markers are also tested at 4-, 5-, 6-, 7-, 8-, 10-, 12-, 15-, 18-, 20-, 25-, 30-, 40, and 50-days post-dose.

CD4+ and CD8+ T cells = assay: Phase I single ascending dose study in healthy volunteers: Tcon cells; format: in vivo, human
Description: as §2, §3

[2] = Single dose pharmacokinetics in mice; format: in vivo, C57BL/6 Mice
Tregs = assay: Single-dose PK/PD study in mice: Tregs in blood and spleen by flow cytometry; format: in vivo, C57BL/6 mice
Excerpt: as §1

cGVHD model = assay: cGVHD model, repeat administration; format: in vivo
human IL-2Rβ = target: T1, human IL-2Rβ (Homo sapiens, UniProt P14784); assay: Affinity to the IL-2 receptor by surface plasmon resonance; format: binding; details: SPR
T1 sequence (P14784 27-551): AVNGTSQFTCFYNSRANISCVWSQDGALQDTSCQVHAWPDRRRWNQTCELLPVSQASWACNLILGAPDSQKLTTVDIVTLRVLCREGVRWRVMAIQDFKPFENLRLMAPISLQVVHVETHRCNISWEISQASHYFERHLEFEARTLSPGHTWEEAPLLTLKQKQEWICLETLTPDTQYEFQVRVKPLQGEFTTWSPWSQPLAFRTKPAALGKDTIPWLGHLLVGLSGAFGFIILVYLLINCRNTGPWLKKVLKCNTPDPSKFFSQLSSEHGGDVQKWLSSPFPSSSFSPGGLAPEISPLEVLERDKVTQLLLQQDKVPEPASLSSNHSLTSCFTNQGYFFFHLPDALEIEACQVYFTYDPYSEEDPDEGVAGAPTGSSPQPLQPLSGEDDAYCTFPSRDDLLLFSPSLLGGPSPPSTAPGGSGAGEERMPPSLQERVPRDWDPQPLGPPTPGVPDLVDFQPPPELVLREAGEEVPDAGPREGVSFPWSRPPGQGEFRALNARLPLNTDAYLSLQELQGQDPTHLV
Description: Impaired IL-2 production and regulatory T cell dysfunctions have been implicated as an immunological mechanism in multiple autoimmune diseases. While low-dose IL-2 can be used to stimulate Tregs for clinical benefit, poor pharmacokinetics necessitates daily delivery, adverse events are dose-limiting, and Treg increases are modest and short-lived. […] The affinity to the IL-2 receptor is assessed by surface plasmon resonance. Activity in human PBMC can be measured by pSTAT5 induction in multiple lymphocyte populations using flow cytometry and time-of-flight mass cytometry (CyToF). In vivo activity after subcutaneous administration in C57BL/6 mice or cynomolgus monkey is measured by changes in lymphocyte numbers and activation by flow cytometry. Ex vivo Treg function is determined by the inhibition of Tcon proliferation by isolated splenic Treg. Efficacy is assessed in a model of systemic lupus erythematosus (SLE) using MRL/MpJ-Faslpr mice. […] In mice, a single administration leads to sustained Treg mobilization for 7-10 days in blood and spleen without Tcon activation, an effect concomitant with induction of Treg activation markers and increased ex vivo suppressive capacity. […] Finally, an RUR20kD-IL-2 composition is efficacious in mouse models of SLE.

[3] = C57BL/6 mice, single SC 0.03 mg/kg, plasma
[4] = C57BL/6 mice, single SC 0.1 mg/kg, plasma
[5] = C57BL/6 mice, single SC 0.3 mg/kg, plasma

(1,3-bis(methoxypoly(ethylene glycol)10kDcarbamoyl)-2-propanoxy)-4-butanamide)interleukin-2) [RUR20kD-IL-2]
changes to CD4 T cells (CD4 T cells, CD8 T cells): modest
changes to CD8 T cells (CD4 T cells, CD8 T cells): slight decreases
mean increase in numbers of CD4+FoxP3+CD25bright Tregs compared to placebo ([1]; single SC 3.0 μg/kg): 3.0 fold
mean increase in numbers of CD4+FoxP3+CD25bright Tregs compared to pre-dose ([1]; single SC 3.0 μg/kg): 3 fold
time of peak (maximal) Treg response ([1]; single SC 3.0 μg/kg): 84 h
mean increase in numbers of CD4+FoxP3+CD25bright Tregs compared to placebo ([1]; single SC 6.0 μg/kg): 3.5 fold
mean increase in numbers of CD4+FoxP3+CD25bright Tregs compared to pre-dose ([1]; single SC 6.0 μg/kg): 3.5 fold
mean increase in numbers of CD4+FoxP3+CD25bright Tregs compared to placebo ([1]; single SC 9.0 μg/kg): 4.1 fold
mean increase in numbers of CD4+FoxP3+CD25bright Tregs compared to pre-dose ([1]; single SC 9.0 μg/kg): 4.1 fold
mean increase in numbers of CD4+FoxP3+CD25bright Tregs compared to placebo ([1]; single SC 13.5 μg/kg): 5.0 fold
mean increase in numbers of CD4+FoxP3+CD25bright Tregs compared to pre-dose ([1]; single SC 13.5 μg/kg): 5 fold
mean increase in numbers of CD4+FoxP3+CD25bright Tregs compared to pre-dose ([1]; single SC 20.0 μg/kg): 8.1 fold
increase in mean peak Treg:CD8 ratio over baseline ([1]; single SC 28 μg/kg): 15 fold
mean peak increase in numbers of CD25-bright Tregs above pre-dose values ([1]; single SC 28 μg/kg): 17 fold
mean peak percentage of CD25bright Tregs ([1]; single SC 28.0 μg/kg, increased from 0.5%): 7.4%
numbers of Tregs versus placebo subjects ([1]; single SC 0.3 and 1.0 μg/kg): no change in the numbers of Tregs; also recorded: No changes in total CD4+ Tregs
total CD4+FoxP3+CD25+ Treg population ([1]; single SC 3.0, 6.0, 9.0 and 13.5 μg/kg): dose-dependent increase in the total CD4+FoxP3+CD25+ Treg population
doses at which increases in Treg activation markers (ICOS and CTLA4) were observed ([1]; single SC dose): ≥ 0.0135 mg/kg
time until CD4+FoxP3+CD25bright Treg levels return to baseline ([1]; single SC dose, 3.0 μg/kg and above): 20 to 25 days
days at which Treg levels peak ([1]; single SC dose, 3.0 to 28.0 μg/kg cohorts): 10 to 12 days
absolute number of CD8+ T cells and percentage of Ki67+ CD8+ T cells (CD4+ and CD8+ T cells; single SC 13.5 μg/kg): small increases
percentage or numbers of T cell populations (CD4+, CD8+) (CD4+ and CD8+ T cells; single SC dose, any dose): no changes in percentage or numbers of T cell populations (CD4+, CD8+); also recorded: no changes in percentages or numbers of conventional CD4+ or CD8+ T cells
AUCinf [2, 3]: 22900 ng·h/mL
AUClast [2, 3]: 21500 ng·h/mL
Cmax [2, 3]: 333 ng/mL
Half-life [2, 3]: 53.8 h
MRTinf [2, 3]: 83 h
tmax [2, 3]: 7.92 h
AUCinf [2, 4]: 102000 ng·h/mL
AUClast [2, 4]: 97400 ng·h/mL
Cmax [2, 4]: 1140 ng/mL
Half-life [2, 4]: 53.8 h
MRTinf [2, 4]: 81.4 h
tmax [2, 4]: 7.92 h
AUCinf [2, 5]: 245000 ng·h/mL
AUClast [2, 5]: 238000 ng·h/mL
Cmax [2, 5]: 3330 ng/mL
Half-life [2, 5]: 44.4 h
MRTinf [2, 5]: 71.5 h
tmax [2, 5]: 24 h
tmax ([2]; mice, SC, range over doses): 7.92 to 24 h
half-lives ([2]; mice, range over doses): 1.85 to 2.24 days
time of peak increase in CD4+ Treg cell numbers (Tregs; blood and spleen, single SC dose 0.03-0.3 mg/kg): four days following administration; also recorded: four days after administration
duration of sustained Treg mobilization (Tregs; blood and spleen, single administration): 7 to 10 days
time until Treg levels return to baseline (Tregs; single SC 0.3 mg/kg): 7 to 10 days
day ICOS expression returns to baseline (Tregs; single SC dose): ≤ 7 days
day of peak ICOS expression on Treg (Tregs; single SC dose): 3 days
percentage of proliferating (Ki67) Treg, duration (Tregs; single SC dose): sustained through day 6
time of maximum of Treg activation markers (CD25 and Foxp3 MFI) (Tregs; single SC dose, highest dose 0.3 mg/kg, 0.3 mg/kg): in the first two days following administration; also recorded: within the first two days following administration
Tregs and germinal center B cells in spleen (cGVHD model): increases Tregs and decreases germinal center B cells in spleen
lung dysfunction (cGVHD model): reverses lung dysfunction
affinity for human IL-2Rβ relative to IL-2Ra and IL-2Rαβ complexes (human IL-2Rβ): greatly attenuated affinity
